According to patent US6914045B2, “Glycopeptide antibiotics” (Wyeth Holdings Corporation, priority 2001, dated 2005):
≈ marks a conversion by molar mass, not a printed value. Blank lines part the entries; values can stand above or below the compound they belong to.

Experiments:
Experiment in all cases: in vitro antibacterial evaluation, MIC by broth dilution
Type in all cases: cell-based
Enterococcus sp. = details: broth dilution, 18 hours at 35° C.
Method: (§1) Methods for in vitro Antibacterial Evaluation (Table 1)
(§2) The minimum inhibitory concentration (MIC), the lowest concentration of the antibiotic which inhibits growth of the test organism, is determined by the broth dilution method using Muller-Hinton II […] (Baltimore Biological Laboratories) following the recommendations of the National Committee for Clinical Laboratory Standards [Methods for dilution antimicrobial susceptibility tests for bacteria that grow aerobically, approved standard M7-A2, National Committee for Clinical Laboratory Standards, Villanova, Pa.].
(§3) An inoculum level of 5×10^5 CFU/mL, and a range of antibiotic concentrations (64-0.06 μg/mL) is used. […] The test organisms include a spectrum of Gram-positive bacteria comprised of Staphylococcus sp., Streptococcus sp. and Enterococcus sp. These organisms include recent clinical isolates that are resistant to methicillin, penicillin and/or vancomycin.

Staphylococcus sp. = test system: Staphylococcus sp.
Method: as §1, §2, §3

Escherichia coli = details: 18 hours at 35° C.
Method: as §2, §3

Streptococcus sp. = details: broth dilution, 18 hours at 35° C.
Method: as §1, §2, §3

[1] = broth dilution, 18 hours at 35° C.
[2] = broth dilution, 18 hours at 35° C.; strain GC 4547

MIC Enterococcus faecalis (ATCC 29212) (Enterococcus sp.; Enterococcus faecalis (ATCC 29212)): >64 µg/mL
MIC Enterococcus faecalis (GC 2242) (Enterococcus sp.; Enterococcus faecalis (GC 2242)): >64 µg/mL
MIC Enterococcus faecalis (GC 4552) (Enterococcus sp.; Enterococcus faecalis (GC 4552)): >64 µg/mL
MIC Enterococcus faecalis (ATCC 29212) (Enterococcus sp.): >64 µg/mL
MIC Enterococcus faecalis (GC 2242) (Enterococcus sp.): >64 µg/mL
MIC Enterococcus faecalis (GC 4552) (Enterococcus sp.): >64 µg/mL
MIC Coagulase Negative Staphylococcus (GC 4537) (Staphylococcus sp.; [1]): >64 µg/mL
MIC Coagulase Negative Staphylococcus (GC 4538) (Staphylococcus sp.; [1]): >64 µg/mL
MIC Coagulase Negative Staphylococcus (GC 4547) (Staphylococcus sp.; [1]): >64 µg/mL
MIC Coagulase Negative Staphylococcus (GC 4537) (Staphylococcus sp.; broth dilution, 18 hours at 35° C.; strain GC 4537): >64 µg/mL
MIC Coagulase Negative Staphylococcus (GC 4538) (Staphylococcus sp.; broth dilution, 18 hours at 35° C.; strain GC 4538): >64 µg/mL
MIC Coagulase Negative Staphylococcus (GC 4547) (Staphylococcus sp.; [2]): >64 µg/mL
MIC Staphylococcus aureus (ATCC 29213) (Staphylococcus sp.; strain ATCC 29213; broth dilution, 18 hours at 35° C.): >64 µg/mL
MIC Staphylococcus aureus (GC 1131) (Staphylococcus sp.; strain GC 1131; broth dilution, 18 hours at 35° C.): >64 µg/mL
MIC Staphylococcus aureus (GC 4535) (Staphylococcus sp.; strain GC 4535; broth dilution, 18 hours at 35° C.): >64 µg/mL
MIC Staphylococcus aureus-SMITH (GC 4536) (Staphylococcus sp.; strain GC 4536; broth dilution, 18 hours at 35° C.): >64 µg/mL
MIC Escherichia coli (GC 4559) (Escherichia coli): >64 µg/mL
MIC Escherichia coli (GC 4560) (Escherichia coli): 2 µg/mL (≈ 1.42 µM)
Structure (SMILES): CCCCCCC(=O)OCC1OC(N2C(=N)NCC2C(O)C2NC(=O)C(C(O)C3CNC(=N)N3)NC(=O)C(Cc3ccc(OC4OC(CO)C(OC5OC(CO)C(O)C(O)C5O)C(O)C4O)cc3)NC(=O)C(C(C)c3ccccc3)NC(=O)CNC(=O)C(CO)NC2=O)C(O)C(O)C1O (stereo not drawn) [Example 97, Cyclo[glycyl-β-methylphenylalanyl-O-(4-O-hexopyranosylhexolpyranosyl)tyrosyl-3-(2-iminoimidazolidin-4-yl)seryl-3-[3-(6-O-heptanoylhexopyranosyl)-2-iminoimidazolidin-4-yl]seryl-seryl]]

MIC Enterococcus faecalis (GC 2242) (Enterococcus sp.): 4 µg/mL (≈ 2.69 µM)
MIC Enterococcus faecalis (GC 2691) (Enterococcus sp.): 2 µg/mL (≈ 1.34 µM)
MIC Enterococcus faecalis (GC 3059) (Enterococcus sp.): 2 µg/mL (≈ 1.34 µM)
MIC Enterococcus faecalis (GC 4552) (Enterococcus sp.): 4 µg/mL (≈ 2.69 µM)
MIC Enterococcus faecalis (ATCC 29212) (Enterococcus sp.; strain ATCC 29212): 4 µg/mL (≈ 2.69 µM)
MIC Enterococcus faecium (GC 2243) (Enterococcus sp.; strain GC 2243): 2 µg/mL (≈ 1.34 µM)
MIC Enterococcus faecalis (GC 4552) (Enterococcus sp.; strain GC 4552): 4 µg/mL (≈ 2.69 µM)
MIC Enterococcus faecalis (GC 4553) (Enterococcus sp.; strain GC 4553): 4 µg/mL (≈ 2.69 µM)
MIC Enterococcus faecalis (GC 4554) (Enterococcus sp.; strain GC 4554): 4 µg/mL (≈ 2.69 µM)
MIC Enterococcus faecium (GC 4556) (Enterococcus sp.; strain GC 4556): 2 µg/mL (≈ 1.34 µM)
MIC Enterococcus faecium (GC 4557) (Enterococcus sp.; strain GC 4557): 2 µg/mL (≈ 1.34 µM)
MIC Enterococcus avium (GC 4558) (Enterococcus sp.; strain GC 4558): 2 µg/mL (≈ 1.34 µM)
MIC Enterococcus faecalis (GC 6189) (Enterococcus sp.; strain GC 6189): 2 µg/mL (≈ 1.34 µM)
MIC Enterococcus faecalis (GC 2242) (Enterococcus sp.; inoculum 5×10^5 CFU/mL, strain GC 2242): 4 µg/mL (≈ 2.69 µM)
MIC Enterococcus faecalis (GC 2691) (Enterococcus sp.; inoculum 5×10^5 CFU/mL, strain GC 2691): 2 µg/mL (≈ 1.34 µM)
MIC Enterococcus faecalis (GC 3059) (Enterococcus sp.; inoculum 5×10^5 CFU/mL, strain GC 3059): 2 µg/mL (≈ 1.34 µM)
MIC Coagulase Negative Staphylococcus (GC 4547) (Staphylococcus sp.; [1]): 4 µg/mL (≈ 2.69 µM)
MIC Coagulase Negative Staphylococcus (GC 4548) (Staphylococcus sp.; [1]): 2 µg/mL (≈ 1.34 µM)
MIC Coagulase Negative Staphylococcus (GC 4549) (Staphylococcus sp.; [1]): 1 µg/mL (≈ 0.672 µM)
MIC Coagulase Negative Staphylococcus (GC 4551) (Staphylococcus sp.; [1]): 4 µg/mL (≈ 2.69 µM)
MIC Coagulase Negative Staphylococcus (GC 6257) (Staphylococcus sp.; [1]): 1 µg/mL (≈ 0.672 µM)
MIC Staphylococcus aureus (ATCC 29213) (Staphylococcus sp.; [1]): 2 µg/mL (≈ 1.34 µM)
MIC Staphylococcus aureus (GC 1131) (Staphylococcus sp.; [1]): 2 µg/mL (≈ 1.34 µM)
MIC Staphylococcus aureus (GC 3051) (Staphylococcus sp.; [1]): 2 µg/mL (≈ 1.34 µM)
MIC Staphylococcus aureus (GC 3053) (Staphylococcus sp.; [1]): 2 µg/mL (≈ 1.34 µM)
MIC Staphylococcus aureus (GC 4541) (Staphylococcus sp.; [1]): 2 µg/mL (≈ 1.34 µM)
MIC Staphylococcus aureus (GC 4542) (Staphylococcus sp.; [1]): 2 µg/mL (≈ 1.34 µM)
MIC Staphylococcus aureus (GC 4544) (Staphylococcus sp.; [1]): 4 µg/mL (≈ 2.69 µM)
MIC Staphylococcus aureus (GC 4545) (Staphylococcus sp.; [1]): 2 µg/mL (≈ 1.34 µM)
MIC Staphylococcus aureus-SMITH (GC 4543) (Staphylococcus sp.; [1]): 2 µg/mL (≈ 1.34 µM)
MIC Staphylococcus aureus (ATCC 29213) (Staphylococcus sp.; broth dilution, 18 hours at 35° C.; strain ATCC 29213): 2 µg/mL (≈ 1.34 µM)
MIC Staphylococcus aureus (GC 1131) (Staphylococcus sp.; broth dilution, 18 hours at 35° C.; strain GC 1131): 2 µg/mL (≈ 1.34 µM)
MIC Staphylococcus aureus (GC 3051) (Staphylococcus sp.; broth dilution, 18 hours at 35° C.; strain GC 3051): 2 µg/mL (≈ 1.34 µM)
MIC Staphylococcus aureus (GC 3053) (Staphylococcus sp.; broth dilution, 18 hours at 35° C.; strain GC 3053): 2 µg/mL (≈ 1.34 µM)
MIC Staphylococcus aureus (GC 4541) (Staphylococcus sp.; broth dilution, 18 hours at 35° C.; strain GC 4541): 2 µg/mL (≈ 1.34 µM)
MIC Staphylococcus aureus (GC 4542) (Staphylococcus sp.; broth dilution, 18 hours at 35° C.; strain GC 4542): 2 µg/mL (≈ 1.34 µM)
MIC Staphylococcus aureus-SMITH (GC 4543) (Staphylococcus sp.; broth dilution, 18 hours at 35° C.; strain GC 4543): 2 µg/mL (≈ 1.34 µM)
MIC Staphylococcus aureus (GC 4544) (Staphylococcus sp.; broth dilution, 18 hours at 35° C.; strain GC 4544): 4 µg/mL (≈ 2.69 µM)
MIC Staphylococcus aureus (GC 4545) (Staphylococcus sp.; broth dilution, 18 hours at 35° C.; strain GC 4545): 2 µg/mL (≈ 1.34 µM)
MIC Coagulase Negative Staphylococcus (GC 4547) (Staphylococcus sp.; [2]): 4 µg/mL (≈ 2.69 µM)
MIC Coagulase Negative Staphylococcus (GC 4548) (Staphylococcus sp.; broth dilution, 18 hours at 35° C.; strain GC 4548): 2 µg/mL (≈ 1.34 µM)
MIC Coagulase Negative Staphylococcus (GC 4549) (Staphylococcus sp.; broth dilution, 18 hours at 35° C.; strain GC 4549): 1 µg/mL (≈ 0.672 µM)
MIC Coagulase Negative Staphylococcus (GC 4551) (Staphylococcus sp.; broth dilution, 18 hours at 35° C.; strain GC 4551): 4 µg/mL (≈ 2.69 µM)
MIC Coagulase Negative Staphylococcus (GC 6257) (Staphylococcus sp.; broth dilution, 18 hours at 35° C.; strain GC 6257): 1 µg/mL (≈ 0.672 µM)
MIC Streptococcus agalactiae (GC 4564) (Streptococcus sp.): <0.06 µg/mL
MIC Streptococcus pneumoniae (ATCC 6301) (Streptococcus sp.): <0.06 µg/mL
MIC Streptococcus pneumoniae (GC 1894) (Streptococcus sp.): <0.06 µg/mL
MIC Streptococcus pneumoniae (GC 4565) (Streptococcus sp.): <0.06 µg/mL
MIC Streptococcus pyogenes (GC 4563) (Streptococcus sp.): <0.06 µg/mL
MIC Streptococcus pneumoniae (ATCC 6301) (Streptococcus sp.; inoculum 5×10^5 CFU/mL, strain ATCC 6301): <0.06 µg/mL
MIC Streptococcus pneumoniae (GC 1894) (Streptococcus sp.; inoculum 5×10^5 CFU/mL, strain GC 1894): <0.06 µg/mL
MIC Streptococcus pyogenes (GC 4563) (Streptococcus sp.; inoculum 5×10^5 CFU/mL, strain GC 4563): <0.06 µg/mL
MIC Streptococcus agalactiae (GC 4564) (Streptococcus sp.; inoculum 5×10^5 CFU/mL, strain GC 4564): <0.06 µg/mL
MIC Streptococcus pneumoniae (GC 4565) (Streptococcus sp.; inoculum 5×10^5 CFU/mL, strain GC 4565): <0.06 µg/mL
Structure (SMILES): CC(c1ccccc1)C1NC(=O)CNC(=O)C(CO)NC(=O)C(C(O)C2CNC(=N)N2C2OC(CO)C(O)C(O)C2O)NC(=O)C(C(O)C2CNC(=N)N2)NC(=O)C(Cc2ccc(OC3OC(CO)C(OC4OC(CO)C(OCC=C(c5ccccc5)c5ccccc5)C(O)C4O)C(O)C3O)cc2)NC1=O (centres unmarked) [Example 241a]
MIC Staphylococcus haemolyticus (GC 4546) (Staphylococcus sp.; [1]): 2 µg/mL (≈ 1.34 µM)
MIC Staphylococcus haemolyticus (GC 4546) (Staphylococcus sp.; broth dilution, 18 hours at 35° C.; strain GC 4546): 2 µg/mL (≈ 1.34 µM)
